system: HUVEC primary endothelial cells; assay: HUVEC proliferation assay (CyQUANT Direct); type: cell-based; details: Homo sapiens, 72 h, 3 days incubation
Protocol: HUVEC Proliferation Assay
Proliferation of HUVEC primary endothelial cells was used as cell-based mechanistical assay.^25 Applying the CyQUANT@ Direct Cell Proliferation Assay (Invitrogen C35011) which is based on a cell-permeant fluorescent DNA-binding dye, DNA content is used as a direct measure for cell number. Pooled HUVEC cells (Promocell C-12203) are cultivated in the medium supplied by Promocell (Cat No C-22020) for maximum 4 passages. For the assay 500 cells/well are seeded into black 384-well culture plates with clear bottom in 70 μl culture medium and incubated for 6 hours at 37° C., 5% CO2. 10 μl prediluted test compounds are added and cells incubated for 3 days at 37° C., 5% CO2 before measurement of DNA content. CyQUANT detection reagent is prepared according to the manufacturers protocol, 20 μl/well added and incubated at 37° C., 5% CO2 for at least 1 h before measurement of fluorescence at Envision multimode reader (Perkin-Elmer, Waltham) with excitation 480 nm and emission 535 nm (bottom read mode). The assay is performed as dose response with 10 compound dilutions. Inhibitory values (IC50) were determined using the program ASSAY ANALYZER® from GeneData (Basel, Switzerland).

Row | SMILES | IC50 [nM]
1 | O=C1CCC(N2C(=O)c3ccc(NCCOCCOCCOCCNC(=O)c4cc5cc(N6CC[C@](O)(C(=O)NCc7cc(F)cc(F)c7)C6=O)ccc5[nH]4)cc3C2=O)C(=O)N1 (stereo partly drawn) [Compound A42, 5-[(3S)-3-{[(3,5-difluorophenyl)methyl]carbamoyl}-3-hydroxy-2-oxopyrrolidin-1-yl]-N-(2-{2-[2-(2-{[2-(2,6-dioxopiperidin-3-yl)-1,3-dioxo-2,3-dihydro-1H-isoindol-5-yl]amino}ethoxy)ethoxy]ethoxy}ethyl)-1H-indole-2-carboxamide] | 4600
2 | O=C1CCC(N2C(=O)c3ccc(C#CCOCCOCCOCCOCCNC(=O)c4cc5cc(N6CC[C@](O)(C(=O)NCc7cc(F)cc(F)c7)C6=O)ccc5[nH]4)cc3C2=O)C(=O)N1 (stereo partly drawn) [Compound A43, 5-[(3S)-3-{[(3,5-difluorophenyl)methyl]carbamoyl}-3-hydroxy-2-oxopyrrolidin-1-yl]-N-{15-[2-(2,6-dioxopiperidin-3-yl)-1,3-dioxo-2,3-dihydro-1H-isoindol-5-yl]-3,6,9,12-tetraoxapentadec-14-yn-1-yl}-1H-indole-2-carboxamide] | 7100
3 | O=C1CCC(N2C(=O)c3cccc(NCCOCCOCCOCCOCCNC(=O)c4cc5cc(N6CC[C@](O)(C(=O)NCc7cc(F)cc(F)c7)C6=O)ccc5[nH]4)c3C2=O)C(=O)N1 (stereo partly drawn) [Compound A44, 5-[(3S)-3-{[(3,5-difluorophenyl)methyl]carbamoyl}-3-hydroxy-2-oxopyrrolidin-1-yl]-N-(14-{[2-(2,6-dioxopiperidin-3-yl)-1,3-dioxo-2,3-dihydro-1H-isoindol-4-yl]amino}-3,6,9,12-tetraoxatetradecan-1-yl)-1H-indole-2-carboxamide] | 7000
4 | CN(CCOCCOCCOCCOCCOCCN(C)c1cccc2c1C(=O)N(C1CCC(=O)NC1=O)C2=O)C(=O)c1cc2cc(N3CC[C@](O)(C(=O)NCc4cc(F)cc(F)c4)C3=O)ccc2[nH]1 (stereo partly drawn) [Compound A45, 5-[(3S)-3-{[(3,5-difluorophenyl)methyl]carbamoyl}-3-hydroxy-2-oxopyrrolidin-1-yl]-N-{2-[2-(2,6-dioxopiperidin-3-yl)-1,3-dioxo-2,3-dihydro-1H-isoindol-4-yl]-5,8,11,14,17-pentaoxa-2-azanonadecan-19-yl}-N-methyl-1H-indole-2-carboxamide] | 610
5 | O=C1CCC(N2C(=O)c3cccc(C#CCOCCOCCOCCOCCOCCNC(=O)c4cc5cc(N6CC[C@](O)(C(=O)NCc7cc(F)cc(F)c7)C6=O)ccc5[nH]4)c3C2=O)C(=O)N1 (stereo partly drawn) [Compound A46, 5-[(3S)-3-{[(3,5-difluorophenyl)methyl]carbamoyl}-3-hydroxy-2-oxopyrrolidin-1-yl]-N-{18-[2-(2,6-dioxopiperidin-3-yl)-1,3-dioxo-2,3-dihydro-1H-isoindol-4-yl]-3,6,9,12,15-pentaoxaoctadec-17-yn-1-yl}-1H-indole-2-carboxamide] | > 30000
6 | CN(CCOCCOCCOCCOCCN(C)c1ccc2c(c1)C(=O)N(C1CCC(=O)NC1=O)C2=O)C(=O)c1cc2cc(N3CC[C@](O)(C(=O)NCc4cc(F)cc(F)c4)C3=O)ccc2[nH]1 (stereo partly drawn) [Compound A47, 5-[(3S)-3-{[(3,5-difluorophenyl)methyl]carbamoyl}-3-hydroxy-2-oxopyrrolidin-1-yl]-N-{2-[2-(2,6-dioxopiperidin-3-yl)-1,3-dioxo-2,3-dihydro-1H-isoindol-5-yl]-5,8,11,14-tetraoxa-2-azahexadecan-16-yl}-N-methyl-1H-indole-2-carboxamide] | 240
7 | O=C1CCC(N2C(=O)c3ccc(NCCOCCOCCOCCN4CCN(C(=O)c5cc6cc(N7CC[C@](O)(C(=O)NCc8cc(F)cc(F)c8)C7=O)ccc6[nH]5)CC4)cc3C2=O)C(=O)N1 (stereo partly drawn) [Compound A48, (3S)—N-[(3,5-difluorophenyl)methyl]-1-{2-[4-(2-{2-[2-(2-{[2-(2,6-dioxopiperidin-3-yl)-1,3-dioxo-2,3-dihydro-1H-isoindol-5-yl]amino}ethoxy)ethoxy]ethoxy}ethyl)piperazine-1-carbonyl]-1H-indol-5-yl}-3-hydroxy-2-oxopyrrolidine-3-carboxamide] | 85
8 | O=C1CCC(N2C(=O)c3ccc(NCCOCCOCCN4CCC5(CC4)CCN(C(=O)c4cc6cc(N7CC[C@](O)(C(=O)NCc8cc(F)cc(F)c8)C7=O)ccc6[nH]4)CC5)cc3C2=O)C(=O)N1 (stereo partly drawn) [Compound A49, (3S)—N-[(3,5-difluorophenyl)methyl]-1-[2-(9-{2-[2-(2-{[2-(2,6-dioxopiperidin-3-yl)-1,3-dioxo-2,3-dihydro-1H-isoindol-5-yl]amino}ethoxy)ethoxy]ethyl}-3,9-diazaspiro[5.5]undecane-3-carbonyl)-1H-indol-5-yl]-3-hydroxy-2-oxopyrrolidine-3-carboxamide] | 51
9 | O=C1CCC(N2C(=O)c3ccc(NC(=O)CCCCCCCCCCCCCNC(=O)c4cc5cc(N6CC[C@](O)(C(=O)NCc7cc(F)cc(F)c7)C6=O)ccc5[nH]4)cc3C2=O)C(=O)N1 (stereo partly drawn) [Compound A50, (3S)—N-[(3,5-difluorophenyl)methyl]-1-{2-[(13-{[2-(2,6-dioxopiperidin-3-yl)-1,3-dioxo-2,3-dihydro-1H-isoindol-5-yl]carbamoyl}tridecyl)carbamoyl]-1H-indol-5-yl}-3-hydroxy-2-oxopyrrolidine-3-carboxamide] | 180
10 | O=C1CCC(N2C(=O)c3ccc(NCCCCOCCCCOCCCCNC(=O)c4cc5cc(N6CC[C@](O)(C(=O)NCc7cc(F)cc(F)c7)C6=O)ccc5[nH]4)cc3C2=O)C(=O)N1 (stereo partly drawn) [Compound A51, 5-[(3S)-3-{[(3,5-difluorophenyl)methyl]carbamoyl}-3-hydroxy-2-oxopyrrolidin-1-yl]-N-{4-[4-(4-{[2-(2,6-dioxopiperidin-3-yl)-1,3-dioxo-2,3-dihydro-1H-isoindol-5-yl]amino}butoxy)butoxy]butyl}-1H-indole-2-carboxamide] | 400
11 | O=C1CCC(N2C(=O)c3ccc(OCCOCCOCCOCCOCCNC(=O)c4cc5cc(N6CC[C@](O)(C(=O)NCc7cc(F)cc(F)c7)C6=O)ccc5[nH]4)cc3C2=O)C(=O)N1 (stereo partly drawn) [Compound A52, 5-[(3S)-3-{[(3,5-difluorophenyl)methyl]carbamoyl}-3-hydroxy-2-oxopyrrolidin-1-yl]-N-(14-{[2-(2,6-dioxopiperidin-3-yl)-1,3-dioxo-2,3-dihydro-1H-isoindol-5-yl]oxy}-3,6,9,12-tetraoxatetradecan-1-yl)-1H-indole-2-carboxamide] | 4900
12 | O=C1CCC(N2C(=O)c3ccc(NC(=O)COCCOCCOCCOCCOCCNC(=O)c4cc5cc(N6CC[C@](O)(C(=O)NCc7cc(F)cc(F)c7)C6=O)ccc5[nH]4)cc3C2=O)C(=O)N1 (stereo partly drawn) [Compound A55, (3S)—N-[(3,5-difluorophenyl)methyl]-1-{2-[(1-{[2-(2,6-dioxopiperidin-3-yl)-1,3-dioxo-2,3-dihydro-1H-isoindol-5-yl]carbamoyl}-2,5,8,11,14-pentaoxahexadecan-16-yl)carbamoyl]-1H-indol-5-yl}-3-hydroxy-2-oxopyrrolidine-3-carboxamide] | > 30000
13 | O=C1CCC(N2C(=O)c3cccc(NCCOCCOCCOCCOCCN4CCN(C(=O)c5cc6cc(N7CC[C@](O)(C(=O)NCc8cc(F)cc(F)c8)C7=O)ccc6[nH]5)CC4)c3C2=O)C(=O)N1 (stereo partly drawn) [Compound A56, (3S)—N-[(3,5-difluorophenyl)methyl]-1-{2-[4-(14-{[2-(2,6-dioxopiperidin-3-yl)-1,3-dioxo-2,3-dihydro-1H-isoindol-4-yl]amino}-3,6,9,12-tetraoxatetradecan-1-yl)piperazine-1-carbonyl]-1H-indol-5-yl}-3-hydroxy-2-oxopyrrolidine-3-carboxamide] | 120
14 | O=C1CCC(N2C(=O)c3cccc(NC(=O)CCCCCCCCCCCCCCCCNC(=O)c4cc5cc(N6CC[C@](O)(C(=O)NCc7cc(F)cc(F)c7)C6=O)ccc5[nH]4)c3C2=O)C(=O)N1 (stereo partly drawn) [Compound A57, (3S)—N-[(3,5-difluorophenyl)methyl]-1-{2-[(16-{[2-(2,6-dioxopiperidin-3-yl)-1,3-dioxo-2,3-dihydro-1H-isoindol-4-yl]carbamoyl}hexadecyl)carbamoyl]-1H-indol-5-yl}-3-hydroxy-2-oxopyrrolidine-3-carboxamide] | > 30000

— US20220062258A1, “Heterocyclic derivatives” (Merck Patent GmbH, priority 2019, published 2022)
